Measurements taken from ChEMBL document CHEMBL1201862, “PubChem BioAssay data set” (2004).
Several values for one entry are separate records, joined by “and”; a condition that tells them apart may be missing. Equal values may be shown once. Activity calls are given as the source filed them.

Columns and labels:
[1] = Counterscreen for […] of the human trace amine associated receptor 1 (TAAR1): Fluorescence-based cell-based high throughput dose response assay to identify nonselective Ga16 agonists.; assay type: functional
[2] = Counterscreen for antagonists of the human trace amine associated receptor 1 (hTAAR1): Fluorescence-based cell-based high throughput dose response assay to identify nonselective Ga16 antagonists.; assay type: functional
[3] = target: Induced myeloid leukemia cell differentiation protein Mcl-1 (Homo sapiens, UniProt Q07820); assay type: functional
Induced myeloid leukemia cell differentiation protein Mcl-1, sequence (Q07820 whole entry): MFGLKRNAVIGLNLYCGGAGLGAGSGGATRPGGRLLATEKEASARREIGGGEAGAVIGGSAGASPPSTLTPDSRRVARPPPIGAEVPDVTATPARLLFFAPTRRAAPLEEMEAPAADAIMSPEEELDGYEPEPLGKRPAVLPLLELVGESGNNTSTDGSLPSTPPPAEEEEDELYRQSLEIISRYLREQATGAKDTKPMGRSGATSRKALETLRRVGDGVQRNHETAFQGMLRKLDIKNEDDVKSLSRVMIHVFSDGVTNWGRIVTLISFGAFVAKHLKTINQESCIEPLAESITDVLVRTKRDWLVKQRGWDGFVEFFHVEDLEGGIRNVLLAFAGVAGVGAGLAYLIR

[4] = target: Matrix metalloproteinase-14 (Homo sapiens, UniProt P50281); experiment: Dose Response confirmation of uHTS hits for a small molecule inhibitors of MT1-MMP activation in a fluorescence assay set 2.; assay type: functional
Albumin = Albumin (Bos taurus, UniProt P02769); experiment: Counterscreen for inhibitors of T-cell receptor (TCR)-CD3 interaction: Fluorescence-based biochemical high throughput dose response assay to identify inhibitors of T-cell receptor (TCR)-CD3 interaction using a TAMRA-labeled BSA probe.; assay type: functional
Albumin, sequence (P02769 whole entry): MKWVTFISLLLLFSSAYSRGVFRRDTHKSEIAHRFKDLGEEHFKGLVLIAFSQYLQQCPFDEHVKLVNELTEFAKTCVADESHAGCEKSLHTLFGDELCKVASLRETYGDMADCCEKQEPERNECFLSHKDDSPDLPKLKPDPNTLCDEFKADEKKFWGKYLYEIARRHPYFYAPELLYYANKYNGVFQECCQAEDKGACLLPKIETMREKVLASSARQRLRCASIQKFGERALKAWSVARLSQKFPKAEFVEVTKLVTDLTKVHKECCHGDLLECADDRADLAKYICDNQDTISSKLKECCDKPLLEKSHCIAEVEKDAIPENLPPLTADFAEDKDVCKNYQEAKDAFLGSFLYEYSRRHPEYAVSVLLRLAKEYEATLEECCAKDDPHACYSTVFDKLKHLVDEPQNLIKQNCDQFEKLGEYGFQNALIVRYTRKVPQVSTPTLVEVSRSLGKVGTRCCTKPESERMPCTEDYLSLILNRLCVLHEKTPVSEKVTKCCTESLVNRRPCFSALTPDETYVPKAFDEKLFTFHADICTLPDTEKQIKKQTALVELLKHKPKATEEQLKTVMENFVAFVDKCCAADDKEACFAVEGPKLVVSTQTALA

[5] = LMP1-driven NF-kB reporter inhibition, dose response, cell-based, luciferase reporter, luminescence, dry powder, set 2 (AID 624376); assay type: functional
[6] = target: T1, ATP-dependent translocase ABCB1 (Homo sapiens, UniProt P08183); experiment: ABCG2 efflux pump inhibitor potency, dose response, Ig-MXP3 cells, JC-1, flow cytometry, set 2 (AID 504566); assay type: functional; conditions: read-out: EC50_MICROM_;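 note: flow cytometry median green fluorescence of retained JC-1 dye; potency of efflux pump inhibition measured as rising substrate retention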
T1 sequence (P08183 whole entry): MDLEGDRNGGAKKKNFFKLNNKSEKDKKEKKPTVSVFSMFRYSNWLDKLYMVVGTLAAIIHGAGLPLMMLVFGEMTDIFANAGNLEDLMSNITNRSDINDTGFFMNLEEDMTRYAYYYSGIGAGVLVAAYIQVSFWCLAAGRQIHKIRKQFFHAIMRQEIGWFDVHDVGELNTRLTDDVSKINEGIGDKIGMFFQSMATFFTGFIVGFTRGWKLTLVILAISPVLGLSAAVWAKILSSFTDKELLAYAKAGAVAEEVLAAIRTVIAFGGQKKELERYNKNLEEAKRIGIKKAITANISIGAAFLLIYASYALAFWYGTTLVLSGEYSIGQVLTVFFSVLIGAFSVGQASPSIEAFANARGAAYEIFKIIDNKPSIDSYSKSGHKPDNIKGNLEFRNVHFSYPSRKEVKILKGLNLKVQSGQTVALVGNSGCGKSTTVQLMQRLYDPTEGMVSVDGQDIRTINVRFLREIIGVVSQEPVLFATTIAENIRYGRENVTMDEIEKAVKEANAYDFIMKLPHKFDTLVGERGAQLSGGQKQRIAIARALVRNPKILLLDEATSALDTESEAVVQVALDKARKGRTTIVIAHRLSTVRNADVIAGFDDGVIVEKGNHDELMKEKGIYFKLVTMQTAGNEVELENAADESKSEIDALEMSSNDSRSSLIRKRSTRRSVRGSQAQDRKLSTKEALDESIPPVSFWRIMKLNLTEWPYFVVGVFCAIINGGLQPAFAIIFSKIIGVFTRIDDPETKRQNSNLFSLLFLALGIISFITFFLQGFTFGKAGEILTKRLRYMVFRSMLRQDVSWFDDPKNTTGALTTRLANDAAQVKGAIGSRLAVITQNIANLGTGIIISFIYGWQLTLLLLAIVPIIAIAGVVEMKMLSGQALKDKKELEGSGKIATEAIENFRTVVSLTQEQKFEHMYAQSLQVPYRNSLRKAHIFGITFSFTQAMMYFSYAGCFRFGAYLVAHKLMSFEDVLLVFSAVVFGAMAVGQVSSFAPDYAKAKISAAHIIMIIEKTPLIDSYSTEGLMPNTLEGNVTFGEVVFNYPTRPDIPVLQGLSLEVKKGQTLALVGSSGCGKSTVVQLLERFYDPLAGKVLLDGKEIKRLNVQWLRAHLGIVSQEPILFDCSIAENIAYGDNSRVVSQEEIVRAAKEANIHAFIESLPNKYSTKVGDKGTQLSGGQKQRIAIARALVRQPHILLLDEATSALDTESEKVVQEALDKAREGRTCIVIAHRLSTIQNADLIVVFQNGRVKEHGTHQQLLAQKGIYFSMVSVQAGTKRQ

[7] = target: T1, ATP-dependent translocase ABCB1; experiment: ABCB1 efflux inhibitor potency, dose response, Jurkat-DNR cells, JC-1, flow cytometry, set 2 (AID 504569); assay type: functional; conditions: read-out: EC50_MICROM_;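 note: potency of pump inhibitors that raise cellular JC-1 green fluorescence up to the nicardipine level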
Cryptococcus neoformans [8] = experiment: PubChem AID 686997; assay type: functional, organism-based
Cryptococcus neoformans [9] = experiment: Cryptococcus growth inhibition by alamar blue – cell lysis, cherry-picks, replicate tests, mechanism study for C. neoformans antifungal project, dose response (AID 686999); assay type: functional, organism-based
[10] = HEK293 cell viability, dose response, counter-screen for EBV LMP1 inhibitor project, dry powder, set 2 (AID 624374); assay type: functional
[11] = lymphoblastoid cell cytotoxicity, dose response, cytotoxicity control, plate reader, dry powder, set 2 (AID 624367); assay type: functional

In the case of `O=C(CCC(=O)N1CCOCC1)NCCc1ccc(F)cc1`, the EC50 [1] is reported as > 29.9 µM (inactive) and the IC50 [2] is reported as > 29.9 µM (inactive).

With `Cc1ccc(C(=O)NNc2c3ccccc3nc3ccccc23)cc1` the IC50 [3] was 5.38 µM (active) and the IC50 [4] was > 80 µM (inactive).

In the case of `Cn1c(SCC(=O)NNC(=O)c2ccccc2O)nnc1-c1ccccc1`, the IC50 (Albumin) is reported as > 94.2 µM (inactive).

Work on `CC(C)(C)[S@@+]([O-])N1Cc2cc(C(=O)NCc3ccccn3)nc(-c3cccc(-c4ccccc4F)c3)c2[C@H]1CCO` yielded an AbsAC35 [5] of 49.61 µM.

With `COc1ccc(-c2cc3nc(-c4ccccc4)cc(N4CCN(C(=O)c5ccccc5)CC4)n3n2)cc1` the EC50 [6] was 0.72 µM (active) and the EC50 [7] was 0.69 µM (active).

In the case of `COC(=O)C1=C(C)N(Cc2ccccc2)C(=S)N[C@H]1c1ccc(Br)cc1`, the AC50 (Cryptococcus neoformans [8]) is reported as 50.4 µM (active) and 14.1 µM (active) and the AC50 (Cryptococcus neoformans [9]) is reported as 42.2 µM (active).

`O=C(C[C@H]1C[C@H]2c3cc(NS(=O)(=O)c4ccc(F)cc4)ccc3O[C@H]2[C@H](CO)O1)NCc1ccc(Oc2ccccc2)cc1` showed an AbsAC35 [10] of 70.4 µM and an AbsAC35 [11] of 45.43 µM.
